Test results published in article PMC7374098, “Design of thienopyranone-based BET inhibitors that bind multiple synthetic lethality targets” (Scientific Reports, 2020).

What was measured:
[1] = molecular target: T1, BRD4BD1 (Homo sapiens, UniProt O60885); experiment: AlphaScreen displacement binding assay with tetra-acetylated histone H4 peptide, BRD4BD1; conditions: for IC50: displacement of H4K5acK8acK12acK16ac peptide
T1 construct: His; purchased Reaction Biology
Protocol: (§1) In effort to enhance its potency, we designed a new set of chemotypes by in silico screening. […] These compounds were synthesized and their activities toward BRD4BD1 and BRD4BD2 were assessed in a displacement binding assay using the polyacetylated histone H4 peptide H4K5acK8acK12acK16ac as a ligand (Fig. 1b).
(§2) PI3K activity screening and IC50 measurements were performed by Life Technologies (Thermo Fisher Scientific) using ADAPTA, a fluorescence-based in vitro assay.

[2] = molecular target: T2, BRD4BD2 (Homo sapiens, UniProt O60885); experiment: AlphaScreen displacement binding assay with tetra-acetylated histone H4 peptide, BRD4BD2; conditions: displacement of H4K5acK8acK12acK16ac peptide
T2 construct: His; purchased Reaction Biology
Protocol: as §1, §2

[3] = molecular target: T3, PI3Kα (Homo sapiens, UniProt P42336); experiment: PI3K kinase screening assay (ADAPTA); format: biochemical
T3 construct: purchased Life Technologies (Thermo Fisher Scientific)
T3 sequence (P42336 whole entry): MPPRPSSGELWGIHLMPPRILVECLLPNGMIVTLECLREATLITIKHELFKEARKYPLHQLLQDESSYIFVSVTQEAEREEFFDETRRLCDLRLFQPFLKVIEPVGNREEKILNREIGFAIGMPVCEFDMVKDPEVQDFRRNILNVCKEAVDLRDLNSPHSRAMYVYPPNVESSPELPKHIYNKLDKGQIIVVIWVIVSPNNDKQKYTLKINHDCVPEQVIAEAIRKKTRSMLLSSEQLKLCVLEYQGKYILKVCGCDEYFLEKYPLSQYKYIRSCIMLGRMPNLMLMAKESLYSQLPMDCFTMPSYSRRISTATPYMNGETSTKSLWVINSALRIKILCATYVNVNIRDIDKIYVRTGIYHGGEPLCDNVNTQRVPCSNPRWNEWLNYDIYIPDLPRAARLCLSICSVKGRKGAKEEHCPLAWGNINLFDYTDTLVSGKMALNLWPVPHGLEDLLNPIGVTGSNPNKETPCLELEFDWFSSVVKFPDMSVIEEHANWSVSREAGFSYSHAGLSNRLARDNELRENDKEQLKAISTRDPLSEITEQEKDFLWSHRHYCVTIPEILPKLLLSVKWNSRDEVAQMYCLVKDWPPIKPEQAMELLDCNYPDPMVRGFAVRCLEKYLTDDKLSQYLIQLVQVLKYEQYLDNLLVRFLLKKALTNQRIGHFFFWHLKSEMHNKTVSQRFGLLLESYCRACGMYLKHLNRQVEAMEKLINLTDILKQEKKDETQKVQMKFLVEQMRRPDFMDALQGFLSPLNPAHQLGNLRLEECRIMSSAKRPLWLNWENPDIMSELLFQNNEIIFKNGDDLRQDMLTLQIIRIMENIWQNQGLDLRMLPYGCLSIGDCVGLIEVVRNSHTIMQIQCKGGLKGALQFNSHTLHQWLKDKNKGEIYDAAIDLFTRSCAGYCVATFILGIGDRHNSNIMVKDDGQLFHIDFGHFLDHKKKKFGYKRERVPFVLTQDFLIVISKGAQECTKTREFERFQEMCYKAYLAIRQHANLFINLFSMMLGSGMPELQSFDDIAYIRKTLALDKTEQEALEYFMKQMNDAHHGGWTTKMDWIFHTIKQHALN
T3 sequence (P27986 whole entry partner): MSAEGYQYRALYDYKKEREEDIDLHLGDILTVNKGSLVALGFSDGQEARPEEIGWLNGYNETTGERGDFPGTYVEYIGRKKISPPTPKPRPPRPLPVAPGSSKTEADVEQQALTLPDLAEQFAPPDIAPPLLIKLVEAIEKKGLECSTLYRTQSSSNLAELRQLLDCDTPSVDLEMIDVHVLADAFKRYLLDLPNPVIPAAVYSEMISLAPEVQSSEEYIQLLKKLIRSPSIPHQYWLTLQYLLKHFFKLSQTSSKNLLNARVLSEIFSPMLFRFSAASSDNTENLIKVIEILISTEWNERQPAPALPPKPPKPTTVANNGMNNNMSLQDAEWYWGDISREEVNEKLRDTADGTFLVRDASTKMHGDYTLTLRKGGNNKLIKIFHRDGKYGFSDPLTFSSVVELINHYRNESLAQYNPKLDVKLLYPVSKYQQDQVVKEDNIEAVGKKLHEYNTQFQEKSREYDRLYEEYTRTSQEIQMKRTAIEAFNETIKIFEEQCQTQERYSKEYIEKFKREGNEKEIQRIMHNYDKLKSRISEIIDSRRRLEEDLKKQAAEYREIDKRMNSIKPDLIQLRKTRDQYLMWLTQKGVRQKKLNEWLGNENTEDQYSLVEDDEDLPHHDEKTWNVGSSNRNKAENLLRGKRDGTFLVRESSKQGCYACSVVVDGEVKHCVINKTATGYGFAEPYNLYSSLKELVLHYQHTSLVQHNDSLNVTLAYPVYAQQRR
Protocol: as §1, §2

[4] = system: JeKo-1 cells; experiment: Propidium iodide flow cytometry cell cycle analysis, JeKo-1; format: cell-based; conditions: 24 h
Protocol: (§3) (Fig. 2a). […] Palbociclib was used as control given its known inhibition of CDK4/6 and resultant G1 cell cycle growth arrest. […] We next assessed the level of apoptosis by FITC-annexin V incorporation in each of these cell lines.
(§4) Huh7, CHLA-255, or Jeko-1 cells were seeded at 1.5 × 10^6 cells in 60-mm tissue culture dishes and allowed to adhere overnight. […] Cells were released with Accutase (Innovative Cell Technologies, San Diego, CA), washed with PBS and divided for either staining with the FITC Annexin V Apoptosis Detection Kit (BD Biosciences, San Jose, CA) or overnight fixation with ethanol followed by staining with propidium iodide (Roche, Basel, Switzerland) according to each manufacturers’ instructions. Cell staining was analyzed with the FACSCalibur flow cytometer (BD Biosciences) and FlowJo (FlowJo LLC, Ashland, Oregon) and ModFit LT (Verity Software House, Topsham, ME) software packages.

[5] = system: Huh7 cells; experiment: Propidium iodide flow cytometry cell cycle analysis, Huh7; format: cell-based; conditions: 24 h
Protocol: as §3, §4

[6] = system: CHLA-255 cells; experiment: Propidium iodide flow cytometry cell cycle analysis, CHLA-255; format: cell-based; conditions: 24 h
Protocol: as §3, §4

[7] = system: Huh7 cells; experiment: FITC-annexin V apoptosis assay, Huh7; format: cell-based; conditions: treatment at the IC50, 24 h
Protocol: as §3, §4

[8] = system: Huh7 subcutaneous xenografts; experiment: Huh7 subcutaneous xenograft in NGS mice; format: in vivo; conditions: 30 mg/kg oral gavage, one week
Protocol: (§7) Asterisks denote p ≤ 0.05 in comparison with vehicle control by unpaired Student’s t test.
(§8) All procedures involving animals were approved by the UCSD Animal Care Committee, which serves to ensure that all federal guidelines concerning animal experimentation are met. Six to eight week old NGS mice were implanted with 10^7 Huh7 or Jeko-1 cells in the right flank. When tumors reached ∼100 mm^3 after tumor implantation, animals were divided into four groups (n = 8 per group). […] Mice were treated for 1 week by oral gavage, 5 times per week.

[9] = system: JeKo-1 subcutaneous xenografts; experiment: JeKo-1 subcutaneous xenograft in NGS mice; format: in vivo; conditions: 40 mg/kg oral gavage, one week
Protocol: as §7, §8

[10] = system: CDK4; set-up: method as in PMID 32793389; conditions: previously identified; cited from earlier work
[11] = system: JeKo-1 cells; experiment: CellTiter-Glo cell viability assay, JeKo-1; format: cell-based; conditions: Homo sapiens, mantle cell lymphoma, 48 h, read-out: IC50 anti-proliferative activity, JeKo-1
Excerpt: (§5) Although many inhibitors of BRD4 have been developed, the importance of inhibition of both BDs to subdue pathological processes remains unclear, as the two bromodomains have high sequence similarity. We therefore examined whether inhibition of only one bromodomain of BRD4 could lead to sufficient anti-cancer effects.
(§6) All cell lines were obtained from ATCC and tested for mycoplasma and mouse pathogens and checked for authenticity against the International Cell Line Authentication Committee (ICLAC; https://iclac.org/databases/cross-contaminations/) list. Cell viability measurements were performed using CellTiter-Glo luminescent cell viability assay (Promega). […] Cell Titer Glow assay reagent (100 µl) was added to each well and incubated for 10 min at room temperature. Luminescence signal was measured in a Varioscan multimode reader.

[12] = system: Mino cells; experiment: CellTiter-Glo cell viability assay, Mino; format: cell-based; conditions: Homo sapiens, mantle cell lymphoma, 48 h, read-out: IC50 anti-proliferative activity, Mino
Excerpt: as §5, §6

[13] = system: Z138 cells; experiment: CellTiter-Glo cell viability assay, Z138; format: cell-based; conditions: Homo sapiens, Z-138, mantle cell lymphoma, 48 h, read-out: IC50 anti-proliferative activity, Z138
Excerpt: as §5, §6

[14] = system: SKNBE-2 cells; experiment: CellTiter-Glo cell viability assay, SKNBE-2; format: cell-based; conditions: Homo sapiens, SKNBE2, 48 h, read-out: IC50 anti-proliferative activity, neuroblastoma (SKNBE-2)
Excerpt: as §5, §6

[15] = system: PC3 cells; experiment: CellTiter-Glo cell viability assay, PC3; format: cell-based; conditions: PTEN mutated, 48 h
Excerpt: as §5, §6

[16] = system: AKT phosphorylation at Ser473 (PI3K activity) in JeKo-1 cells; experiment: Western blot of AKT phosphorylation at Ser473 in IgM-stimulated JeKo-1 cells; format: cell-based; conditions: JeKo-1 cells stimulated with IgM, 1 h incubation, increasing concentrations up to 5 µM
Protocol: as §5
Cells were resuspended with 1 ml of RPMI-1640 (serum free) and stimulated with 10 µg/ml of goat F(ab) 2 anti-human IgM antibody (Southern Biotech Birmingham, AL, USA) at 37 °C for 10 min. Cells were then harvested and lysed with RIPA buffer followed by Western blot analysis for pAKT expression.

[17] = system: HCT116 cells; experiment: CellTiter-Glo cell viability assay, HCT116; format: cell-based; conditions: Homo sapiens, HCT-116, 48 h, read-out: IC50 anti-proliferative activity, colon carcinoma (HCT116)
Excerpt: as §5, §6

Structure (SMILES) | IC50 [1] | IC50 [2] | IC50 [3] | IC50 [11] | IC50 [12] | IC50 [13] | IC50 [14] | cytotoxic activity in prostate cancer cell line PC3 [15] | AKT phosphorylation at Ser473 [16] | other results
O=c1cc(N2CCNCC2)oc2c(-c3ccc4c(c3)OCCO4)csc12 [SF2523P] | 388 nM | 15700 nM | 48700 nM |  |  |  |  |  |  | 
CN(C)C(=O)c1cc2cnc(Nc3ccc(-c4csc5c(=O)cc(N6CCOCC6)oc45)cc3)nc2n1C1CCCC1 [SRX3177] |  |  |  |  |  |  |  |  |  | cell cycle arrest at higher doses (near the IC50), JeKo-1 [4]: induced G2 phase growth arrest; cell cycle arrest at low dosage (near the IC10), JeKo-1 [4]: induction of G1 cell cycle arrest; cell cycle arrest at higher doses (near the IC50), Huh7 [5]: induced G2 phase growth arrest; cell cycle arrest at low dosage (near the IC10), Huh7 [5]: induction of G1 cell cycle arrest; cell cycle arrest at low dosage (near the IC10), CHLA-255 [6]: induction of G1 cell cycle arrest; induction of early apoptosis, Huh7 [7]: ~ threefold; tumor growth vs vehicle control, Huh7 xenograft [8]: significant abrogation of tumor growth; tumor growth vs vehicle control, JeKo-1 xenograft [9]: significant abrogation of tumor growth; mortality (mouse, in vivo, po): no treatment-related death; adverse effects / toxicity (oral gavage, one week): no adverse effects were noted; animal weight (oral gavage, one week, vs vehicle): remained the same; IC50 [10]: 2.5 nM
O=C(NCc1cccnc1)c1cc(-c2csc3c(=O)cc(N4CCNCC4)oc23)cc2c1OCCO2 [SRX3212P] | 27 nM | 2810 nM | 5700 nM | 3100 nM | 3900 nM | 2900 nM | 15000 nM | Neither inhibitor sensitized | did not decrease AKT phosphorylation | 
O=C(NCc1cccnc1)c1cc(-c2csc3c(=O)cc(N4CCOCC4)oc23)cc2c1OCCO2 [SRX3212] | 3.7 nM | 32 nM | 22 nM | 280 nM | 440 nM | 240 nM | 3200 nM | Neither inhibitor sensitized | concomitant decrease in levels of AKT phosphorylation at Ser473 | increase in potency of SRX3212 compared to SRX3212P ([1]; BRD4BD1): sevenfold; IC50 [17]: 1300 nM
